Reference: publication PMC5838106, “Cathelicidin promotes inflammation by enabling binding of self-RNA to cell surface scavenger receptors” (Scientific Reports, 2018)

Columns and labels:
Type in all cases: cell-based, human
NHEKs = assay: Cytokine mRNA expression in NHEKs stimulated with cathelicidin peptide and dsRNA (quantitative real-time PCR); conditions: for inhibition of the expression of inflammatory cytokines induced by LL37 and U1 RNA: MDC 200 μM, Pitstop-2 25 μM, dynasore 80 μM for 30 minutes
THP1 cells = assay: Cytokine expression in PMA-treated THP1 cells stimulated with cathelicidin peptide and U1 RNA; conditions: PMA-treated THP1; MDC 200 μM, Pitstop-2 25 μM, dynasore 80 μM for 30 minutes, LL37 3 μM and U1 RNA 12.5 μg/mL overnight; n = 3
Description: Figure 1 Inflammatory activity of cathelicidin can be dissociated from antimicrobial function (a) Transcriptomic analysis by RNASeq of primary cultures of normal human epidermal keratinocytes (NHEKs) treated with LL37 (2.5 μM) with or without U1 RNA (2.5 μg/mL) for 24 hours. Shown are gene sets induced > 2 fold over vehicle, and after treatment with LL37, U1 RNA, or the combination of LL37 + U1 RNA. (b) Gene Ontology analysis of gene sets from (a). The number of genes related to each biological process is indicated in parentheses. (c) Amino acid sequence of synthetic cathelicidin peptides used in this study. (d) Antimicrobial assay of cathelicidin peptides against group A streptococcus (GAS). GAS were incubated with various concentrations of each peptide (0–25 μM) for 6 hours, then surviving colonies counted after plating on Todd Hewitt Broth gel. (e) IFN-β1 mRNA abundance and (f) IL-6 mRNA abundance in NHEKs after treatment with cathelicidin peptides (2.5 μM) for 10 minutes, then stimulated with U1 RNA (2.5 μg/mL) for a further 6 hours. (n = 3). (g) IFN-β1 mRNA abundance and (h) IL-6 mRNA abundance in […] (PMA)-treated THP1 cells after treatment with cathelicidin peptides (3 μM) for 10 minutes, then stimulated with U1 RNA (12.5 μg/mL) overnight. (n = 3). Data presented are from one representative experiment of at least two independent experiments. Error bars are SEM of three biological replicates. *P < 0.05, **P < 0.01, ***P < 0.001 by two-way ANOVA with Bonferroni’s post-hoc test. See also Fig. S1.
Primary neonatal human epidermal keratinocytes (NHEKs) was purchased from ThermoFisher Scientific. NHEKs were grown in serum free EpiLife medium supplemented with 0.06 mM CaCl2, EpiLife Defined growth supplements (EDGS) (ThermoFisher Scientific) and antibiotics, and passage 3–5 cells were used for experiment. Cells at 60–80% confluence were starved overnight without EDGS prior to treatment. THP1 was purchased from American Type Culture Collection (ATCC) (Manassas, VA). THP1 was cultured in RPMI-1640 (Sigma) supplemented with 10% Hyclone fetal calf serum (Thermofisher Scientific), and antibiotics, and passage 3–5 cells were used for experiment. Cells at 60–80% confluence were differentiated by Phorbol 12-myristate 13-acetate (PMA, Sigma) for 24 hours and then starved overnight without Hyclone fetal calf serum prior to treatment.
RNA was isolated from NHEKs using Purelink RNA isolation columns (ThermoFisher Scientific) according to the manufacturer’s instructions. RNA was quantified using a Nanodrop spectrophotometer (ThermoFisher Scientific), and up to 500 ng of RNA was reverse-transcribed using the iScript cDNA synthesis kit (Bio-Rad, Irvine, CA). Quantitative real-time PCR reactions were run on a CFX96 real-time detection system (Bio-Rad) using gene-specific primers and TaqMan probes (ThermoFisher Scientific). PCR primers and probes are shown on Table S2.

scavenger receptors = assay: Proximity ligation assay between U1 RNA and the indicated scavenger receptors; conditions: NHEKs, 4 °C, 1 hour; Fig. 3d
Description: Figure 3 Cathelicidin enables dsRNA to associate with scavenger receptors. (a) Proximity ligation assay for SR-B1 and U1 RNA. NHEKs were cultured with various cathelicidin peptides (2.5 μM) for 10 minutes, then with biotinylated U1 RNA (2.5 μg/mL) at 4 °C for 1 hour before physical proximity of SR-B1 and U1 RNA was determined using a fluorescence-based PLA that produces a red fluorescent signal. Nuclei (blue) are counterstained with DAPI. Scale bar represents 10 μm. (b) Signal count of (a) in 5 visual fields. (c) Proximity ligation assay as in (a) but reaction is detecting proximity of LL37 and SR-A6. Scale bar represents 100 μm. (d) Signal count of proximity ligation assay performed as in (a), but between U1 RNA and the indicated scavenger receptors, each count is PLA complexes observed in 5 visual fields. (e) Skin sections from healthy subject (control), or lesional skin from a psoriasis patient (Psoriasis) were fixed and PLA performed for LL37 and SR-B1. […]
NHEKs seeded into 8 chamber slides (Thermo Fisher Scientific) were incubated with various combination of U1 RNA, poly(I:C), cathelicidin peptides, and fucoidan for 1 hour at 4 °C allowing binding, but not internalization. […] Fluorescent PLA signals were evaluated using fluorescence microscopy (described above). Signals are counted by Duolink ImageTool software version 1.0.1.2 (Sigma-aldrich).

[1] = LL37 2.5 μM and U1 RNA 2.5 μg/mL 6 hours, n = 3

Compound	inhibition of the expression of inflammatory cytokines induced by LL37 and U1 RNA (NHEKs; [1])	inhibition of the expression of inflammatory cytokines induced by LL37 and U1 RNA (THP1 cells)	further results
O=C1NC(=NS(=O)(=O)c2cccc3ccccc23)S/C1=C\c1ccc(Br)cc1 [Pitstop-2^TM]	significant inhibition	significant inhibition	–
O=C(N/N=C/c1ccc(O)c(O)c1)c1cc2ccccc2cc1O [dynasore]	significant inhibition	significant inhibition	–
Fucoidan	–	–	effect on LL37-dependent binding of U1 RNA to scavenger receptors (PLA) (scavenger receptors): significantly diminished binding; inhibition of the capacity of LL37 to induce cytokines combined with U1 RNA (NHEKs; various concentrations of fucoidan, LL37 2.5 μM and U1 RNA 2.5 μg/mL 6 hours): potently inhibited; inhibition of the capacity of LL37 to induce cytokines combined with poly(I:C) (NHEKs; various concentrations of fucoidan, LL37 2.5 μM and poly(I:C) 0.3 μg/mL 6 hours): potently inhibited
Oc1ccc2ccccc2c1SSc1c(O)ccc2ccccc12 [IPA-3]	–	–	effect on IFN-β1 and IL-6 expression induced by LL37 and U1 RNA (NHEKs; IPA-3 2.8 nM for 30 minutes, LL37 2.5 μM and U1 RNA 2.5 μg/mL 6 hours, n = 3): did not inhibit
CN(C)c1cccc2c(S(=O)(=O)NCCCCCN)cccc12 [MDC, Monodansylcadaverine]	significant inhibition	significant inhibition	–
pertussis toxin	–	–	effect on expression of IL-6 induced by LL37 and U1 RNA (NHEKs; pertussis toxin 0.5 μg/mL or WRW4 1 μM for 1 hour, then LL37 2.5 μM and U1 RNA 2.5 μg/mL 6 hours, n = 3): did not decrease
